In patent publication US9102623B2, “Pyridinecarboxamides, useful-plant-protecting composition comprising them and processes for their preparation and their use” (Bayer Cropscience AG, priority 2007, dated 2015):

Experiments:
Assay type in all cases: in vivo
[1] = system: corn; assay: Post-emergence safener action in corn with the herbicide tembotrione; conditions: greenhouse, visual scoring of damage
Source text: (§1) The damage to the plants is scored visually using a scale of 0-100%, in comparison to control plants:
(§2) 0%=no noticeable effect compared to the untreated plant
(§3) 100%=the treated plants dies.
(§4) Seeds or rhizome pieces of monocotyledonous and dicotyledonous harmful plants and crop plants are placed in sandy loam soil in plastic pots, covered with soil and cultivated in the greenhouse under good growth conditions. Alternatively, harmful plants encountered in paddy rice cultivation are cultivated in pots in which the surface of the soil is covered by up to 2 cm of water. Three weeks after sowing, the test plants are treated at the three-leaf stage. The herbicide/safener active compound combinations according to the invention, formulated as emulsion concentrates, and in parallel tests the individual active compounds formulated in a corresponding manner, are sprayed at various dosages at a water application rate of […] (converted) onto the green parts of the plants, and, after the test plants were left to stand in the greenhouse for about 2 to 3 weeks under optimum growth conditions, the effect of the preparations is scored visually in comparison to untreated controls. In the case of rice or harmful plants encountered in the cultivation of rice, the active compounds are also added directly to the irrigation water (application analogously to the so-called granule application) or sprayed onto the plants and into the irrigation water. […]

[2] = system: barley; assay: Post-emergence safener action in barley with the herbicide mesosulfuron-methyl; conditions: greenhouse, visual scoring of damage
Source text: as §1, §2, §3, §4

[3] = system: corn; assay: Pre-emergence safener action in corn with the herbicide isoxaflutol; conditions: greenhouse, visual scoring after 3 to 4 weeks
Source text: as §1, §2, §3
Seeds or rhizome pieces of monocotyledonous and dicotyledonous weed plants and crop plants were placed in sandy loam soil in plastic pots and covered with soil. The herbicide/safener active compound combinations according to the invention, formulated as suspension emulsion concentrates, and in parallel tests the individual active compounds formulated in a corresponding manner, were then, at various dosages at a water application rate of 600 to 800 l/ha (converted), applied to the surface of the covering soil.
After the treatment, the pots were placed in the greenhouse and kept under good growth conditions for the weeds and the crop plants. Visual scoring of the plant damage or emergence damage was carried out after the test plants had emerged after a test period of 3 to 4 weeks, in comparison to untreated controls.

SMILES | safener action for the herbicide tembotrione [1] | safener action for the herbicide mesosulfuron-methyl [2] | safener action in combination with the herbicide isoxaflutol [3]
COCCCNC(=O)c1ccc(C(F)(F)F)[nH]c1=O [Compound 66] | good safener action | good safener action | –
COCC(C)NC(=O)c1ccc(C(F)(F)Cl)[nH]c1=O (centres unmarked) [Compound 178] | good safener action | good safener action | –
CC(C)NC(=O)c1ccc(C(F)(F)C(F)(F)F)[nH]c1=O [Compound 345] | good safener action | good safener action | –
C#CCNC(=O)c1ccc(C(F)(F)Cl)[nH]c1=O [Compound 153] | good safener action | good safener action | –
C=CCN(CC=C)C(=O)c1ccc(C(F)(F)F)[nH]c1=O [Compound 36] | good safener action | good safener action | –
CCN(C)C(=O)c1ccc(C(F)(F)F)[nH]c1=O [Compound 10] | good safener action | good safener action | –
C=CCNC(=O)c1cc(Br)c(C(F)(F)F)[nH]c1=O [Compound 943, N-Allyl-5-bromo-2-oxo-6-(trifluoromethyl)-1,2-dihydropyridine-3-carboxamide] | good safener action | good safener action | –
CC(C)(C)NC(=O)c1ccc(C(F)(F)Cl)[nH]c1=O [Compound 122] | – | – | good safener action
C=CCNC(=O)c1cc(Cl)c(C(F)(F)F)[nH]c1=O [Compound 489] | good safener action | good safener action | –
CCC(C)NC(=O)c1ccc(C(F)(F)Cl)[nH]c1=O (centres unmarked) [Compound 155] | – | good safener action | good safener action
CC(C)CCNC(=O)c1ccc(C(F)(F)Cl)[nH]c1=O [Compound 146] | good safener action | good safener action | –
NC(=O)c1cc(Br)c(C(F)(F)F)[nH]c1=O [Compound 909] | good safener action | good safener action | –
CCCNC(=O)c1ccc(C(F)(F)C(F)(F)C(F)(F)F)[nH]c1=O [Compound 1598, 6-(Heptafluoropropyl)-2-oxo-N-propyl-1,2-dihydropyridine-3-carboxamide] | good safener action | good safener action | –
C=CCNC(=O)c1ccc(C(F)(F)Cl)[nH]c1=O [Compound 148] | good safener action | good safener action | –
C#CCNC(=O)c1ccc(C(F)(F)F)[nH]c1=O [Compound 39] | – | – | good safener action
CCC(C)NC(=O)c1cc(Cl)c(C(F)(F)F)[nH]c1=O (centres unmarked) [Compound 496] | good safener action | good safener action | –
O=C(c1ccc(C(F)(F)Cl)[nH]c1=O)N1CCOCC1 [Compound 214] | good safener action | good safener action | –
O=C(NC1CC1)c1ccc(C(F)(F)C(F)(F)C(F)(F)F)[nH]c1=O [Compound 1600] | good safener action | good safener action | –
CC(C)NC(=O)c1cc(Br)c(C(F)(F)F)[nH]c1=O [Compound 913] | good safener action | good safener action | –
CCCC(C)NC(=O)c1ccc(C(F)F)[nH]c1=O (centres unmarked) [Compound 271] | – | – | good safener action
CCCC(C)NC(=O)c1cc(Cl)c(C(F)(F)F)[nH]c1=O (centres unmarked) [Compound 498] | good safener action | good safener action | –
CCC(CC)NC(=O)c1cc(Br)c(C(F)(F)F)[nH]c1=O [Compound 960] | good safener action | good safener action | –
CCCNC(=O)c1cc(Br)c(C(F)(F)Cl)[nH]c1=O [Compound 1026] | good safener action | good safener action | –
CN(C)/C=N/C(=O)c1ccc(C(F)(F)F)[nH]c1=O [Compound 105, N-[(Dimethylamino)methylene]-2-oxo-6-(trifluoromethyl)-1,2-dihydropyridine-3-carboxamide] | good safener action | good safener action | –

SMILES | safener action for the herbicide tembotrione [1] | safener action for the herbicide mesosulfuron-methyl [2] | safener action in combination with the herbicide isoxaflutol [3]
C=CCNC(=O)c1ccc(C(F)(F)F)[nH]c1=O [Compound 34] | good safener action | good safener action | –
O=C(NCc1ccc(Cl)nc1)c1ccc(C(F)(F)F)[nH]c1=O [Compound 95] | good safener action | – | –
CCOC(CNC(=O)c1ccc(C(F)(F)Cl)[nH]c1=O)OCC [Compound 169] | good safener action | good safener action | –
CN(C)C(=O)c1ccc(C(F)(F)F)[nH]c1=O [Compound 9] | good safener action | good safener action | –
CC(NC(=O)c1ccc(C(F)(F)Cl)[nH]c1=O)c1ccccc1 (centres unmarked) [Compound 210] | good safener action | – | –
CCN(CC)C(=O)c1ccc(C(F)(F)F)[nH]c1=O [Compound 14] | good safener action | good safener action | –
CCC(CC)NC(=O)c1ccc(C(F)(F)F)[nH]c1=O [Compound 51] | good safener action | – | –
COC(=O)CNC(=O)c1ccc(C(F)(F)F)[nH]c1=O [Compound 71] | good safener action | – | –
CCCC(C)NC(=O)c1ccc(C(F)(F)C(F)(F)C(F)(F)F)[nH]c1=O (centres unmarked) [Compound 1638] | good safener action | – | –
CCNC(=O)c1cc(Cl)c(C(F)(F)F)[nH]c1=O [Compound 457] | good safener action | good safener action | –
CCONC(=O)c1ccc(C(F)(F)F)[nH]c1=O [Compound 79] | good safener action | good safener action | –
O=C(NC1CCCCC1)c1ccc(C(F)(F)F)[nH]c1=O [Compound 19] | – | – | good safener action
C#CCNC(=O)c1ccc(C(F)(F)C(F)(F)F)[nH]c1=O [Compound 380] | – | – | good safener action
CNC(=O)c1cc(Cl)c(C(F)(F)F)[nH]c1=O [Compound 456] | good safener action | – | –
O=C(NC1CCC1)c1ccc(C(F)(F)C(F)(F)Cl)[nH]c1=O [Compound 1488] | good safener action | – | –
O=C(NCC(F)(F)F)c1ccc(C(F)(F)Cl)[nH]c1=O [Compound 140] | good safener action | good safener action | –
CC(C)NC(=O)c1ccc(C(F)F)[nH]c1=O [Compound 232, 6-Difluoromethyl-N-isopropyl-2-oxo-1,2-dihydropyridine-3-carboxamide] | – | – | good safener action
CCNC(=O)c1cc(Br)c(C(F)(F)F)[nH]c1=O [Compound 911] | good safener action | good safener action | –
NC(=O)c1ccc(C(F)(F)Cl)[nH]c1=O [Compound 114] | good safener action | good safener action | –
COC(=O)CN(C)C(=O)c1ccc(C(F)(F)F)[nH]c1=O [Compound 72] | – | – | good safener action
O=C(c1ccc(C(F)(F)Cl)[nH]c1=O)N1CCCC1 [Compound 217] | – | – | good safener action
CC(C)NC(=O)c1ccc(C(F)(F)C(F)(F)C(F)(F)F)[nH]c1=O [Compound 1599] | good safener action | good safener action | –
CC(C)NC(=O)c1ccc(C(F)(F)F)[nH]c1=O [Compound 4] | good safener action | – | –
COCC(C)NC(=O)c1ccc(C(F)(F)F)[nH]c1=O (centres unmarked) [Compound 64] | good safener action | good safener action | –
